According to patent publication EP4471048A1, “PEPTIDE INHIBITORS OF INTERLEUKIN-23 RECEPTOR” (Zealand Pharma A/S, priority 2023, dated 2024):

Key:
[1] = Peptide stability in simulated gastric fluid (SGF); format: in vitro ADME; details: 37 °C, porcine pepsin; for remaining at 1 h, 10 µM / remaining at 4 h, 10 µM: pig, simulated gastric fluid (SGF) with porcine pepsin (3.2 g/L); for remaining at 1 h, 10 µM: pH 1.2, 1 h, read-out: SGF (% remaining 1 h)
Experimental: (§1) SGF was prepared by dissolving sodium chloride (0.2 g) in 50 mL of water. A volume of 0.7 mL of 10 M HCl was added to adjust the pH of the solution to 1.2 and the volume made up to 100 mL with water. […] SIF was prepared by dissolving monobasic potassium phosphate (0.68 g) in 50 mL of water and adjusting the pH to 6.8 with 1 M NaOH. The volume was subsequently made up to 100 mL with water. 200 mg porcine pancreatin (P1625, Sigma Aldrich) was gently dissolved into 20 mL preheated (37 °C) solution (10 g/L) immediately prior to the incubation.
(§2) The incubation was performed at 37 °C with gentle shaking. […] After the last timepoint, the sampling plate was mixed for 10 min on a shaking table and centrifuged 10 min at 2200 g. 70 µL resulting supernatant was diluted with 150 µL water, mixed and centrifugated before analysis by liquid chromatography high resolution mass spectrometry. […] Percent remaining at each timepoint was calculated relative to timepoint zero based on absolute peak areas.
Compounds with a SGF stability (after 4 h) above 70% are considered highly SGF stable. […] Table 3-4: SGF data

[2] = target: T1, human IL-23R (Homo sapiens, UniProt Q5VWK5); assay: biochemical; details: for Emax: read-out: % displacement (hIL-23R NIuc)
T1 sequence (Q5VWK5 22-629): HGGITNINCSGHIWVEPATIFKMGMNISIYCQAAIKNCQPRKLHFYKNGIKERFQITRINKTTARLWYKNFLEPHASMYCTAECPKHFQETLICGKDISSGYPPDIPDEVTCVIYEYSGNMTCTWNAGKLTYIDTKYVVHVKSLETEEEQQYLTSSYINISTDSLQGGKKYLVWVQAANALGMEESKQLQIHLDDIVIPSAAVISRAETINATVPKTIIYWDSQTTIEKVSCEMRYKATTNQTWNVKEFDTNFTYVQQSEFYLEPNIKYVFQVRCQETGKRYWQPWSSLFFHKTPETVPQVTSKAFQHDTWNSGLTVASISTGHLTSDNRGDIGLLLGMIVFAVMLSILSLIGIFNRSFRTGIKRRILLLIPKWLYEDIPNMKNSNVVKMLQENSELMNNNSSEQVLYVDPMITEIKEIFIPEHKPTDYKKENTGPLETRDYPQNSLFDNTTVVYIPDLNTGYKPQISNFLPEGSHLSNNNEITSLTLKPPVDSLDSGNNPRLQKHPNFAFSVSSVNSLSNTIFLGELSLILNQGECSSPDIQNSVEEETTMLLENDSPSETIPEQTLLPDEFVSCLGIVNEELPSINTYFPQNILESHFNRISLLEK
Outline: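 BRET displacement of a TAMRA-labelled reference compound from N-terminal Nanoluc-IL-23R fusion protein in membranes from stably transfected HEK293 cells. Incubation 2 h at room temperature, then Nanoluc substrate was added and the TAMRA/Nanoluc ratio read. IC50 and maximal displacement came from 4-parameter logistic fits.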

[3] = Peptide stability in simulated intestinal fluid (SIF); format: in vitro ADME; details: 37 °C, porcine pancreatin; for remaining at 1 h, 10 µM / remaining at 4 h, 10 µM: pig; for remaining at 1 h, 10 µM: pH 6.8, 1 h; for remaining at 4 h, 10 µM / SIF (% remaining 4 h): pH 6.8, 4 h; for SIF (% remaining 4 h): 10 µM
Experimental: as §1, §2
Compounds with a SIF stability (after 4 h) above 70% are considered highly SIF stable.

[4] = pH 1.2, 10 µM, pH 1.2, 4 h, read-out: SGF (% remaining 4 h)
[5] = read-out: SIF (% remaining 4 h)
[6] = SAR tables, % peptide remaining, read-out: SIF (% after 4 h)

| Compound | remaining at 1 h, 10 µM ([1]; pH 1.2, 10 µM) [%] | remaining at 4 h, 10 µM [1, 4] [%] | % displacement (hIL-23R NIuc) [2] [%] | IC50 [2] [nM] | remaining at 1 h, 10 µM [3] [%] | remaining at 4 h, 10 µM [3, 5] [%] | Emax [2] [%] | SIF (% remaining 4 h) [3] [%] | remaining at 4 h, 10 µM [3, 6] [%] | SGF (% remaining 4 h) ([1]; 10 µM, pH 1.2, 4 h) [%] | remaining at 4 h, 10 µM ([1]; pH 1.2, SAR tables, % peptide remaining, 10 µM, pH 1.2, 4 h, read-out: SGF (% after 4 h)) [%] |
| --- | --- | --- | --- | --- | --- | --- | --- | --- | --- | --- | --- |
| COc1ccc(C[C@@H]2NC(=O)[C@@H]3CCC(=O)N[C@@H](CCCCNC(=O)CC[C@@H](C(=O)N[C@@H](CCCCNC(=O)c4cccnc4)C(N)=O)NC(=O)[C@](C)(CC(C)C)NC(=O)[C@H](Cc4ccc5ccccc5c4)NC2=O)C(=O)N[C@@H]([C@@H](C)O)C(=O)N[C@@H](C(C)C)C(=O)N[C@@H](Cc2c[nH]c4ccccc24)C(=O)N[C@@H](CCC(N)=O)C(=O)N3)cc1 [Compound 50, K(1c)(6c)^†TVWQE(6c)[Y(Me)][2-Nal][2-Me-Leu]E(1c)[K(nicotinate)]-[NH2]] | 78 | 8 | 98 | 320 | 95 | 81 |  |  |  |  |  |
| CC[C@H](C)[C@@H]1NC(=O)[C@@H]2CCCCNC(=O)CC[C@@H](C(=O)NCCCCC(=O)N[C@@H](Cc3cccnc3)C(=O)NC)NC(=O)[C@](C)(CC(C)C)NC(=O)[C@H](Cc3ccc4ccccc4c3)NC(=O)[C@H](Cc3ccc(OCCN)cc3)NC(=O)[C@H](CCC(=O)N2)NC(=O)[C@H](CCC(N)=O)NC(=O)[C@H](Cc2c[nH]c3ccccc23)NC(=O)[C@H](C(C)C)NC1=O [Compound 64, K(1c)(6c)^†IVWQE(6c)[Y(2-aminoethoxy)][2-Nal][2-Me-Leu]E(1c)[5-Aminopentanoyl][3-(3-Pyridyl)-Ala]-[NHMe]] | 102 | 90 |  | 11 | 93 |  | 99 | 86 | 86 |  |  |
| CC[C@H](C)[C@@H]1NC(=O)[C@@H]2CCCCNC(=O)CC[C@@H](C(=O)N[C@H](Cc3cnc[nH]3)C(=O)N[C@@H](Cc3cccnc3)C(=O)NC)NC(=O)[C@](C)(CC(C)C)NC(=O)[C@H](Cc3ccc4ccccc4c3)NC(=O)[C@H](Cc3ccc(OCCN)cc3)NC(=O)[C@H](CCC(=O)N2)NC(=O)[C@H](CCC(N)=O)NC(=O)[C@H](Cc2c[nH]c3ccccc23)NC(=O)[C@H](C(C)C)NC1=O [Compound 70, K(1c)(6c)^†IVWQE(6c)[Y(2-aminoethoxy)][2-Nal][2-Me-Leu]E(1c)[{d}H][3-(3-Pyridyl)-Ala]-[NHMe]] | 102 | 95 |  | 0.41 | 101 |  | 101 |  | 72 |  |  |
| CC[C@H](C)[C@@H]1NC(=O)[C@@H]2CCCCNC(=O)CC[C@@H](C(=O)N3CCNC3C(=O)N[C@@H](Cc3cccnc3)C(=O)NC)NC(=O)[C@](C)(CC(C)C)NC(=O)[C@H](Cc3ccc4ccccc4c3)NC(=O)[C@H](Cc3ccc(OCCN)cc3)NC(=O)[C@H](CCC(=O)N2)NC(=O)[C@H](CCC(N)=O)NC(=O)[C@H](Cc2c[nH]c3ccccc23)NC(=O)[C@H](C(C)C)NC1=O (stereo partly drawn) [Compound 72, K(1c)(6c)^†IVWQE(6c)[Y(2-aminoethoxy)][2-Nal][2-Me-Leu]E(1c)[(R,S)-Imidazolidin-2-carbonyl][3-(3-Pyridyl)-Ala]-[NHMe]] | 94 | 107 |  | 99 | 102 |  | 97 | 110 | 110 |  |  |

Compounds with a lower IC50 [2], results first:

| remaining at 1 h, 10 µM ([1]; pH 1.2, 10 µM) [%] | remaining at 4 h, 10 µM [1, 4] [%] | % displacement (hIL-23R NIuc) [2] [%] | IC50 [2] [nM] | remaining at 1 h, 10 µM [3] [%] | remaining at 4 h, 10 µM [3, 5] [%] | Emax [2] [%] | SIF (% remaining 4 h) [3] [%] | remaining at 4 h, 10 µM [3, 6] [%] | SGF (% remaining 4 h) ([1]; 10 µM, pH 1.2, 4 h) [%] | remaining at 4 h, 10 µM ([1]; pH 1.2, SAR tables, % peptide remaining, 10 µM, pH 1.2, 4 h, read-out: SGF (% after 4 h)) [%] | Compound |
| --- | --- | --- | --- | --- | --- | --- | --- | --- | --- | --- | --- |
| 105 | 108 |  | 0.072 | 111 | 87 | 99 |  |  |  |  | CC[C@H](C)[C@@H]1NC(=O)[C@@H]2CCCCNC(=O)CC[C@@H](C(=O)NC3(C(=O)N[C@@H](Cc4cccnc4)C(=O)NC)CCNCC3)NC(=O)[C@](C)(CC(C)C)NC(=O)[C@H](Cc3ccc4ccccc4c3)NC(=O)[C@H](Cc3ccc(OCCN)cc3)NC(=O)[C@H](CCC(=O)N2)NC(=O)[C@H](CCC(N)=O)NC(=O)[C@H](Cc2c[nH]c3ccccc23)NC(=O)[C@H](C(C)C)NC1=O [Compound 62, K(1c)(6c)^†IVWQE(6c)[Y(2-aminoethoxy)][2-Nal][2-Me-Leu]E(1c)[4-Aminopiperidin-4-carbonyl][3-(3-Pyridyl)-Ala]-[NHMe]] |
| 98 | 97 |  | 0.12 | 108 | 112 | 101 |  |  |  |  | CC[C@H](C)[C@@H]1NC(=O)[C@@H]2CCCCNC(=O)CC[C@@H](C(=O)N[C@@H](CCN)C(=O)NCCc3cccnc3)NC(=O)[C@](C)(CC(C)C)NC(=O)[C@H](Cc3ccc4ccccc4c3)NC(=O)[C@H](Cc3ccc(OCCN)cc3)NC(=O)[C@H](CCC(=O)N2)NC(=O)[C@H](CCC(N)=O)NC(=O)[C@H](Cc2c[nH]c3ccccc23)NC(=O)[C@H](C(C)C)NC1=O [Compound 66, K(1c)(6c)^†IVWQE(6c)[Y(2-aminoethoxy)][2-Nal][2-Me-Leu]E(1c)[Dab]-[NH-2-(pyridin-3-yl)ethyl]] |
| 91 |  |  | 0.072 | 33 |  | 99 | 0 | 0 | 95 | 95 | CC[C@H](C)[C@@H]1NC(=O)[C@@H]2CCCCNC(=O)CC[C@@H](C(=O)N[C@@H](CCN)C(=O)N[C@@H](Cc3cccnc3)C(=O)NC)NC(=O)CNC(=O)[C@H](Cc3ccc4ccccc4c3)NC(=O)[C@H](Cc3ccc(OCCN)cc3)NC(=O)[C@H](CCC(=O)N2)NC(=O)[C@H](CCC(N)=O)NC(=O)[C@H](Cc2c[nH]c3ccccc23)NC(=O)[C@H](C(C)C)NC1=O [Compound 68, K(1c)(6c)^†IVWQE(6c)[Y(2-aminoethoxy)][2-Nal]GE(1c)[Dab][3-(3-Pyridyl)-Ala]-[NHMe]] |
| 112 | 102 |  | 0.12 | 89 |  | 101 |  | 33 |  |  | CC[C@H](C)[C@@H]1NC(=O)[C@@H]2CCCCNC(=O)CC[C@@H](C(=O)N[C@@H](Cc3cnc[nH]3)C(=O)N[C@@H](Cc3cccnc3)C(=O)NC)NC(=O)[C@](C)(CC(C)C)NC(=O)[C@H](Cc3ccc4ccccc4c3)NC(=O)[C@H](Cc3ccc(OCCN)cc3)NC(=O)[C@H](CCC(=O)N2)NC(=O)[C@H](CCC(N)=O)NC(=O)[C@H](Cc2c[nH]c3ccccc23)NC(=O)[C@H](C(C)C)NC1=O [Compound 69, K(1c)(6c)^†IVWQE(6c)[Y(2-aminoethoxy)][2-Nal][2-Me-Leu]E(1c)H[3-(3-Pyridyl)-Ala]-[NHMe]] |
| 100 | 100 | 100 | 0.084 | 55 |  |  | 6 | 6 |  |  | CC[C@H](C)[C@@H]1NC(=O)[C@@H]2CCCCNC(=O)CC[C@@H](C(=O)N[C@@H](Cc3cnc4ccccc4c3)C(=O)N[C@@H](Cc3cccnc3)C(=O)NC)NC(=O)[C@](C)(CC(C)C)NC(=O)[C@H](Cc3ccc4ccccc4c3)NC(=O)[C@H](Cc3ccc(OCCN)cc3)NC(=O)[C@H](CCC(=O)N2)NC(=O)[C@H](CCC(N)=O)NC(=O)[C@H](Cc2c[nH]c3ccccc23)NC(=O)[C@H](C(C)C)NC1=O [Compound 71, K(1c)(6c)^†IVWQE(6c)[Y(2-aminoethoxy)][2-Nal][2-Me-Leu]E(1c)[3-(3-Quinolinyl)-Ala][3-(3-Pyridyl)-Ala]-[NHMe]] |
